According to patent US8232296B2, “Salt 628” (Astrazeneca AB, priority 2009, dated 2012):
Counter-ions that a name gives are not always drawn.

How the values were obtained:
[1] = Solid state stability study (LC and XRPD); assay type: physicochemical
Protocol: The solid state stability of compound (I) tosylate Form A was studied under four sets of conditions: at 25° C./desiccated; at 25° C./60% relative humidity (RH); 40° C./75% RH and 60° C./75% RH. Samples were examined (LC and XRPD) after 4, 8 and 12 weeks and chemical and physical stability were evaluated. […] It was concluded that compound (I) tosylate Form A has excellent and advantageous chemical and physical stability in the solid state under pharmaceutically relevant storage conditions.

[2] = Dissolution in 900 ml of 0.1 M HCl (pH 1), USP apparatus 2; assay type: physicochemical; conditions: 79 mg (corresponding to 60 mg free base) alone in a capsule; 900 ml 0.1 M HCl, 75 rpm, 37° C.
Protocol: […] The dissolution was measured in 900 ml of 0.1 M HCl (pH 1) and using a USP dissolution apparatus 2 (paddle) at 75 rpm and 37° C. in a fully automated system, Zymark Multidose G3.
The dissolution profile of tablet formulations A and B in Table 7 were determined in 900 ml of 0.1 M HCl (pH 1) and using a USP dissolution apparatus 2 (paddle) at 75 rpm and 37° C. in a fully automated system, Zymark Multidose G3.

[3] = Solubility of compound (I) tosylate in various dissolution media with time; assay type: physicochemical; conditions: thermodynamic from solid, 37° C.
Text: Therefore compound (I) tosylate is expected to improve the aqueous solubility of compound (I) for a sufficient period of time to allow enhanced absorption in man. Without wishing to be limited by theory, the enhanced solubility of compound (I) tosylate may arise from a combination of the inherent higher solubility of the compound (I) tosylate, and a continued high solubility when the compound (I) precipitates from solution as amorphous material, in aqueous media. The observed improved solubility may therefore reflect both the solubility of the amorphous material and the solubility of the compound (I) tosylate, which will be present in-vivo in varying ratios following oral administration of compound (I) tosylate as a result of the kinetic balance between dissolution and precipitation of compound (I). […] In Table 2, the columns marked “modification” refer to the form of the solid present in the dissolution medium at the relevant time point indicated. The data in Table 2 indicate that the solubility remains high for at least 3 hours, particularly at low pH, representative of the pH found in the stomach.
Solubility was determined in 0.1 M HCl at pH 1.0, 0.2 M phosphate buffer at pH 3, 0.2 M phosphate buffer at pH 5.0, 0.2 M phosphate buffer at pH 6.5 and 0.2 M phosphate buffer at pH 8.
Typically about 4 mg of test sample was added to a 1 ml Scantec glass tube. The experiment was started on addition of 800 μl of preheated test media using an automated Tecon robot system (Genesis Freedom 150). Incubation was at 37° C., in a thermoblock, shaken at 600 rpm. Samples were withdrawn after 1 hour, 3 hours and 24 h, triplicate samples for each media. The supernatant liquid was withdrawn from samples and filtered using a Whatman GF/B filter and diluted prior to analysis by LC (Agilent 1100 series with X Terra MSC18 column). The remaining solid in the sample tubes was characterised using XRPD.

[4] = Humidity sorption by gravimetrical vapour sorption (GVS); assay type: physicochemical; conditions: at 80% relative humidity (RH)
Protocol: As such, compound (I) tosylate Form A is right at the border between slightly hygroscopic and non hygroscopic, according to the criteria defined in the European Pharmacopoeia.
The gravimetric responses of test samples to changes in humidity were investigated using a SGA 100 (VTI Corporation) Gravimetrical Vapour Sorption (GVS) instrument with the following features:
Dry to 90% RH and back, in steps of, for example, 10% RH.
Equilibrium condition: <0.01 weight-% per 10 minutes (<0.001 weight-%/min)
Approximately 5 mg of the test sample was placed in the cup and evaluated.

[5] = Solubility of salts of compound (I) after 1 hour in 0.1 M HCl (Zymark Multidose G3, UV 337 nm); conditions: after 1 hour in 900 ml of 0.1 M HCl, 75 rpm, 37° C.
Protocol: The solubility (mg/ml) shown in Table 1 was measured after 1 hour in 900 ml of 0.1 M HCl and at 75 rpm and 37° C. using a Zymark Multidose G3 system. Analysis was made by UV spectrophotometer with a detection wavelength of 337 nm.

[6] = Oral bioavailability study in the dog; assay type: in vivo, Beagle dogs; conditions: Beagle, plasma
Protocol: Beagle dogs (three dogs for each formulation) were administered orally with Compound (I) tosylate form A (dose equivalent to 1.0 mg/kg compound (I) free base) in a gelatine capsule or an aqueous suspension of 0.8 mg/kg crystalline compound (I) free base suspended in water together with 1.2% w/w Avicel and 0.1% w/w Polysorbate 80.
Accordingly the bioavailability of compound (I) tosylate Form A was about 3 times higher than the free base.

[7] = molecular target: T1, Human Neutrophil Elastase (HNE) (Homo sapiens, UniProt P08246); assay: Human Neutrophil Elastase Quenched-FRET assay; assay type: biochemical; conditions: free base dissolved in DMSO; n=26; read-out: IC50 for inhibition of human neutrophil elastase activity
T1 construct: Human Neutrophil Elastase (HNE) purified from serum (Calbiochem art. 324681); purchased Calbiochem 324681; host or cells: purified from serum (so in the source); natural human source, not recombinant
T1 sequence (P08246 30-247 limits assumed): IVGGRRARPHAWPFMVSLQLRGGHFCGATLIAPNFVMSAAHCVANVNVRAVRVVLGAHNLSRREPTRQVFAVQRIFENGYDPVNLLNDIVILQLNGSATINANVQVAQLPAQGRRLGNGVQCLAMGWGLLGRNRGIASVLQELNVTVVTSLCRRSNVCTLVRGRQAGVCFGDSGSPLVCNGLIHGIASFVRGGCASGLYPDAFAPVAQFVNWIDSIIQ
Protocol: The assay uses Human Neutrophil Elastase (HNE) purified from serum (Calbiochem art. 324681; Ref. Baugh, R. J. et al., 1976, Biochemistry. 15, 836-841). […] The protease substrate used was Elastase Substrate V Fluorogenic, MeOSuc-AAPV-AMC (Calbiochem art. 324740; Ref. Castillo, M. J. et al., 1979, Anal. Biochem. 99, 53-64). The substrate was stored in dimethyl sulfoxide (DMSO) at −20° C. The assay additions were as follows: Test compounds and controls were added to black 96-well flat-bottom plates (Greiner 655076), 1.0 μL in 100% DMSO, followed by 30 μL HNE in assay buffer with 0.01% Triton (trade mark) X-100 detergent. The assay buffer constitution was: 100 mM Tris(hydroxymethyl)aminomethane (TRIS) (pH 7.5) and 500 mM NaCl. The enzyme and the compounds were incubated at room temperature for 15 minutes. Then 30 μl substrate in assay buffer was added. The assay was incubated for 30 minutes at room temperature. The concentrations of HNE enzyme and substrate during the incubation were 1.7 nM and 100 μM, respectively. The assay was then stopped by adding 60 μl stop solution (140 mM acetic acid, 200 mM sodium monochloroacetate, 60 mM sodium acetate, pH 4.3). Fluorescence was measured on a Wallac 1420 Victor 2 instrument at settings: Excitation 380 nm, Emission 460 nm. IC50 values were determined using Xlfit curve fitting using model 205.

SMILES: Cc1c(-c2ccnn2C)cc(C(=O)NCc2ccc(S(C)(=O)=O)cn2)c(=O)n1-c1cccc(C(F)(F)F)c1 [compound (I) tosylate Form A, 6-methyl-5-(1-methyl-1H-pyrazol-5-yl)-N-{[5-(methylsulfonyl)pyridin-2-yl]methyl}-2-oxo-1-[3-(trifluoromethyl)phenyl]-1,2-dihydropyridine-3-carboxamide 4-methylbenzenesulfonate]
- solid state chemical and physical stability ([1]; 25° C./desiccated, 25° C./60% RH, 40° C./75% RH, after 4, 8 and 12 weeks): no significant chemical or physical changes were observed
- solid state chemical and physical stability ([1]; stressed 60° C./75% RH condition, 4, 8 and 12 weeks): some potential chemical degradation
- dissolved within 30 minutes [2]: < 65%
- solubility at 1 h ([3]; aqueous buffer, 0.2 M Phosphate buffer pH 3.0, 1 h): 493 ± 97 µM
- solubility at 3 h ([3]; aqueous buffer, 0.2 M Phosphate buffer pH 3.0, 3 h): 492 ± 115 µM
- solubility at 24 h ([3]; aqueous buffer, 0.2 M Phosphate buffer pH 3.0, 24 h): 11.8 ± 0.9 µM
- solubility at 1 h ([3]; aqueous buffer, 0.2 M Phosphate buffer pH 5.0, 1 h): 490 ± 42 µM
- solubility at 3 h ([3]; aqueous buffer, 0.2 M Phosphate buffer pH 5.0, 3 h): 460 ± 54 µM
- solubility at 24 h ([3]; aqueous buffer, 0.2 M Phosphate buffer pH 5.0, 24 h): 12.2 ± 0.6 µM
- solubility at 1 h ([3]; aqueous buffer, 0.2 M Phosphate buffer pH 6.5, 1 h): 416 ± 48 µM
- solubility at 3 h ([3]; aqueous buffer, 0.2 M Phosphate buffer pH 6.5, 3 h): 363 ± 86 µM
- solubility at 24 h ([3]; aqueous buffer, 0.2 M Phosphate buffer pH 6.5, 24 h): 10.1 ± 0.8 µM
- solubility at 1 h ([3]; aqueous buffer, 0.2 M Phosphate buffer pH 8, 1 h): 412 ± 29 µM
- solubility at 3 h ([3]; aqueous buffer, 0.2 M Phosphate buffer pH 8, 3 h): 240 ± 35 µM
- solubility at 24 h ([3]; aqueous buffer, 0.2 M Phosphate buffer pH 8, 24 h): 8.4 ± 0.7 µM
- solubility at 1 h ([3]; simulated gastric fluid, 0.1 M HCl pH 1.0, 1 h): 1530 ± 129 µM
- solubility at 3 h ([3]; simulated gastric fluid, 0.1 M HCl pH 1.0, 3 h): 1100 ± 145 µM
- solubility at 24 h ([3]; simulated gastric fluid, 0.1 M HCl pH 1.0, 24 h): 58.4 ± 1.2 µM
- humidity uptake [4]: around 0.2%
- Solubility ([5]; 4-methylbenzenesulfonate): 1200 µg/mL
- bioavailability ([6]; gelatine capsule, dose equivalent to 1.0 mg/kg compound (I) free base): ~38%

SMILES: Cc1c(-c2ccnn2C)cc(C(=O)NCc2ccc(S(C)(=O)=O)cn2)c(=O)n1-c1cccc(C(F)(F)F)c1 [compound (I), 6-methyl-5-(1-methyl-1H-pyrazol-5-yl)-N-{[5-(methylsulfonyl)pyridin-2-yl]methyl}-2-oxo-1-[3-(trifluoromethyl)phenyl]-1,2-dihydropyridine-3-carboxamide]
- Solubility ([5]; listed as Compound (I) free base): 40 µg/mL
- bioavailability ([6]; aqueous suspension of 0.8 mg/kg crystalline free base (1.2% w/w Avicel, 0.1% w/w Polysorbate 80)): ~12%
- IC50 [7]: 12 nM
